US20110021517A1, “ANTITUMOR COMBINATION COMPRISING A MORPHOLINYL ANTHRACYCLINE DERIVATIVE AND DEMETHYLATING AGENTS” (NERVIANO MEDICAL SCIENCES S.R.L., priority 2008, published 2011)
pIC50: −log10 of the molar value. Where two headings read alike, the source gives them in different places.

What was measured:
[1] = system: L1210/MMRDX cells; experiment: Cytotoxic effect of nemorubicin on nemorubicin-resistant L1210/MMRDX cells with or without pre-treatment with 5-aza-2′-deoxycytidine; assay type: cell-based, murine; details: for pIC50: 24 h nemorubicin treatment, read-out: IC50 (dose inhibiting 50% cell growth)
Procedure: (§1) The effect of 5-aza-2′-deoxycytidine on the cytotoxic activity of morpholinyl anthracycline derivative (nemorubicin) was tested on a murine leukaemia cell line (L1210 cells). Cells were grown in RPMI 1640 medium supplemented with 10% foetal calf serum. Exponentially growing cells were seeded and exposed to 5-aza-2′-deoxycytidine immediately after seeding for 6 days, so as to allow efficient demethylation of the CpG islands. […] Six days following 5-aza-2′-deoxycytidine treatment, cells were diluted and treated with different concentrations of nemorubicin (50, 100, 200 and 500 nM) in comparison with cells not pretreated with the demethylating agent 5-aza-2′-deoxycytidine. In vitro drug sensitivity was determined by counting surviving cells by a Coulter Counter apparatus. The antiproliferative activity of the drug was evaluated after 24 h treatment and calculated from dose-response curves and expressed as dose inhibiting 50% cell growth (IC50). IC50 values were calculated from two-three independent experiments each consisting of at least three replicates. Combination indices (CI) were calculated using a computer program for multiple drug effect analysis based on the equation of Chou-Talalay (Adv Enzyme Regul 1984; 22:27-55) for mutually non-exclusive drugs. CI values <0.3-0.8 are indicative of synergism, 0.8-1.2 are indicative of additivity, […] are indicative of antagonism.
The effect of 5-aza-2′-deoxycytidine on the cytotoxic activity of nemorubicin was tested in comparison on L1210 cells and on the strain resistant to nemorubicin (L1210/MMRDX) (Geroni C. et al, Br J Cancer 9:315-19, 1994). Cells were grown in RPMI 1640 medium supplemented with 10% foetal calf serum. Exponentially growing cells were seeded and exposed to 5-aza-2′-deoxycytidine and nemorubicin as reported here above. In vitro drug sensitivity was determined by counting surviving cells by a Coulter Counter apparatus. The antiproliferative activity of the drug was evaluated after 24 h treatment and calculated from dose-response curves and expressed as IC50. IC50 values were calculated from two-three independent experiments each consisting of at least three replicates. Combination indices (CI) were calculated as described above.

[2] = system: L1210 cells; experiment: Cytotoxic effect of nemorubicin on L1210 cells with or without pre-treatment with 5-aza-2′-deoxycytidine (cell counting, Coulter Counter); assay type: cell-based, murine; details: for pIC50: 24 h nemorubicin treatment, read-out: IC50 (dose inhibiting 50% cell growth)
Procedure: as §1

## (8S-cis, 2″S)-7,8,9,10-tetrahydro-6,8,11-trihydroxy-8-(hydroxyacetyl)-1-methoxy-10-{[2,3,6-trideoxy-3-(2-methoxy-4-morpholinyl)-α-L-lyxo-hexopyranosyl]oxy}-5,12-naphthacenedione [nemorubicin]
[1]; L1210/MMRDX cells pretreated with 5-aza-2′-deoxycytidine
  pIC50: 6.85
[1]; L1210/MMRDX cells untreated (no 5-aza-2′-deoxycytidine pretreatment)
  pIC50: 6.32
[1]; combination of nemorubicin and 5-aza-2′-deoxycytidine, L1210/MMRDX cells
  Combination effect based on CI value (in words): strong synergistic effect
[1]; nemorubicin combined with 5-aza-2′-deoxycytidine pretreatment, L1210/MMRDX cells
  CI (combination index, Chou-Talalay): 0.06
[2]; L1210 cells pretreated with 5-aza-2′-deoxycytidine for 6 days
  pIC50: 6.89
[2]; L1210 cells untreated (no 5-aza-2′-deoxycytidine pretreatment)
  pIC50: 6.68
[2]; combination of nemorubicin and 5-aza-2′-deoxycytidine, L1210 cells
  Combination effect based on CI value (in words): synergistic effect
[2]; nemorubicin combined with 5-aza-2′-deoxycytidine pretreatment, L1210 cells
  CI (combination index, Chou-Talalay): 0.14
